The test system of one assay is thermophilic bacteria. As to the kind of experiment: pH drop (acid formation) of thermophilic bacteria culture: liquid nutrient medium inoculated with crude juice, 65° C. The format is cell-based, thermophilic bacteria from sugar beet crude juice. The settings on record: Example 9; for pH / ΔpH/h: 0.2 ml solution each added at pH 6.30, 6.28, 6.26, 6.24. As to the method:
A liquid nutrient medium as used in microbiology and including 10 g bactopepton, 5 g meat extract, 5 g yeast extract, 1 g glucose, 1 g K2HPO4, 0.3 g KNO3, 0.1 g MgSO4*7H2O and 0.01 g FeSO4*7H2O per liter distilled water, is sterilized in the usual manner for 20 minutes at 120° C. and inoculated with 20 ml crude juice from large-scale sugar beet extraction in a 500 ml vessel heated at 65° C., with the pH being recorded on a recorder. […]
A liquid nutrient medium as used in Example 1 is inoculated with 40 ml crude juice from a sugar factory per liter, stirred at 65° C. and the pH drop is followed. A solution of 15 mg pure neoabietic acid (99%) per 1.5 ml ethanol is prepared.

The subject of assay [1] is osmotolerant microorganisms. Put plainly: pH drop of syrup with 60% dry substances during storage at 22° C. The format is cell-based. The note with it: 350 ppm. An excerpt: A further pH drop is to be avoided or at least delayed by the addition of an agent. The juice is supplemented with rosin acids at a concentration of 200 ppm in the form of a 20% sodium salt solution.

Here are results for two compounds from patent publication US6770147B2, “METHOD FOR THE PRODUCTION OF SUGAR OR SUGAR-CONTAINING PRODUCTS FROM SUGAR-CONTAINING VEGETABLE RAW MATERIALS, SUGAR AND SUGAR-CONTAINING PRODUCTS MADE BY THE METHOD, AND EXTRACTION SOLUTION FOR USE IN THE METHOD” (Zuckerforschung Tulln Gesellschaft m.b.H., priority 2000, dated 2004).

On to `CC(C)=C1C=C2CCC3C(C)(C(=O)O)CCCC3(C)C2CC1` (stereo not drawn) [neoabietic acid], for which, in the assay with thermophilic bacteria (ethanol solution, four additions of 0.2 ml, 40 ml crude juice per liter, 65° C.), the “concentration at which the pH drop is stopped” value worked out at 8 mg per liter. For the same compound, the pH in the assay with thermophilic bacteria (Time 0 h) stood at 6.90; in the assay with thermophilic bacteria (Time 1 h), 6.90; with thermophilic bacteria (Time 2 h), 6.89; in the assay with thermophilic bacteria (Time 3 h), 6.87; in the assay on thermophilic bacteria (Time 3.5 h), 6.86; in the assay on thermophilic bacteria (Time 4 h), 6.85. For the same compound, the pH in the assay with thermophilic bacteria (Time 4.5 h) is on record as 6.82; in the assay with thermophilic bacteria (Time 5 h), 6.72; in the assay with thermophilic bacteria (Time 5.5 h) it was 6.54; in the assay on thermophilic bacteria (Time 5.8 h) it was 6.30; with thermophilic bacteria (Time 6 h), 6.24; in the assay on thermophilic bacteria (Time 6.5 h), 6.24. In addition, the pH in the assay with thermophilic bacteria (Time 7 h) and in the assay on thermophilic bacteria (Time 8 h) was 6.25 throughout. Also, the ΔpH/h with thermophilic bacteria (Time 1 h) was found to be 0.00 pH/h; with thermophilic bacteria (Time 2 h) it was 0.01 pH/h; in the assay on thermophilic bacteria (Time 3 h), 0.02 pH/h; in the assay on thermophilic bacteria (Time 3.5 h) it was 0.02 pH/h; in the assay on thermophilic bacteria (Time 4 h) it was 0.02 pH/h; in the assay with thermophilic bacteria (Time 4.5 h), 0.06 pH/h. For the same compound, the ΔpH/h with thermophilic bacteria (Time 5 h) is reported as 0.20 pH/h; with thermophilic bacteria (Time 5.5 h) it was 0.36 pH/h; in the assay on thermophilic bacteria (Time 5.8 h), 0.80 pH/h; in the assay with thermophilic bacteria (Time 6 h), 0.30 pH/h; with thermophilic bacteria (Time 6.5 h), 0.00 pH/h; in the assay on thermophilic bacteria (Time 7 h), −0.02 pH/h. This compound returned a ΔpH/h in the assay on thermophilic bacteria (Time 8 h) of 0.00 pH/h.

As for `C=O` [HCHO, formaldehyde], the ph drop in assay [1] (Observation time 0 days) stood at 0; in assay [1] (Observation time 1 days), 0.39; in assay [1] (Observation time 2 days), 0.48; in assay [1] (Observation time 5 days), 0.67. In addition, the ph value is 8.44 in assay [1] (Observation time 0 days), 8.05 in assay [1] (Observation time 1 days), 7.96 in assay [1] (Observation time 2 days) and 7.77 in assay [1] (Observation time 5 days).
